{"source": "PubChem BioAssay (NCI)", "test_in_all_cases": "NCI tumour cell line growth inhibition, 48 h", "key": {"UACC-257 melanoma": {"test_system": "UACC-257 melanoma"}, "SR leukemia": {"test_system": "SR leukemia"}, "MOLT-4 leukemia": {"test_system": "MOLT-4 leukemia"}, "HOP-92 NSCLC": {"test_system": "HOP-92 NSCLC"}, "OVCAR-5 ovarian": {"test_system": "OVCAR-5 ovarian"}, "TK-10 renal": {"test_system": "TK-10 renal"}, "T-47D breast": {"test_system": "T-47D breast"}, "MDA-MB-435": {"test_system": "MDA-MB-435"}, "KM12 colon": {"test_system": "KM12 colon"}, "SK-MEL-28 melanoma": {"test_system": "SK-MEL-28 melanoma"}, "PC-3 prostate": {"test_system": "PC-3 prostate"}, "OVCAR-3 ovarian": {"test_system": "OVCAR-3 ovarian"}, "NCI-H226 lung": {"test_system": "NCI-H226 lung"}, "SK-MEL-2 melanoma": {"test_system": "SK-MEL-2 melanoma"}, "A498 renal": {"test_system": "A498 renal"}, "LOX IMVI melanoma": {"test_system": "LOX IMVI melanoma"}, "CCRF-CEM leukemia": {"test_system": "CCRF-CEM leukemia"}, "K-562 leukemia": {"test_system": "K-562 leukemia"}, "OVCAR-8 ovarian": {"test_system": "OVCAR-8 ovarian"}, "SNB-75 CNS": {"test_system": "SNB-75 CNS"}, "MALME-3M melanoma": {"test_system": "MALME-3M melanoma"}, "SK-MEL-5 melanoma": {"test_system": "SK-MEL-5 melanoma"}, "IGROV1 ovarian": {"test_system": "IGROV1 ovarian"}, "RXF 393 renal": {"test_system": "RXF 393 renal"}, "UO-31 renal": {"test_system": "UO-31 renal"}, "HT29 colon": {"test_system": "HT29 colon"}, "SF-268 CNS": {"test_system": "SF-268 CNS"}, "SK-OV-3 ovarian": {"test_system": "SK-OV-3 ovarian"}, "NCI-H460 lung": {"test_system": "NCI-H460 lung"}}, "note": "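Briefly, cells in 96-well plates were exposed to five compound concentrations for 48 h, and endpoints were estimated by linear interpolation. GI50 is the concentration that inhibits growth by half. TGI: concentration producing complete growth inhibition.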", "data": [{"smiles": "O=C(CSc1nc2sc3c(c2c(=O)n1-c1ccc(Cl)cc1)CCCC3)NNC(=O)Nc1cccc(C(F)(F)F)c1", "values": [{"measurement": "GI50", "setting": "UACC-257 melanoma", "result": 2.36, "unit": "µM"}, {"measurement": "TGI", "setting": "UACC-257 melanoma", "result": 6.96, "unit": "µM"}, {"measurement": "GI50", "setting": "SR leukemia", "result": 2.74, "unit": "µM"}, {"measurement": "TGI", "setting": "SR leukemia", "result": "> 100", "unit": "µM"}, {"measurement": "GI50", "setting": "MOLT-4 leukemia", "result": 2.9, "unit": "µM"}, {"measurement": "TGI", "setting": "MOLT-4 leukemia", "result": "> 100", "unit": "µM"}, {"measurement": "GI50", "setting": "HOP-92 NSCLC", "result": 1.66, "unit": "µM"}, {"measurement": "TGI", "setting": "HOP-92 NSCLC", "result": 4.2, "unit": "µM"}, {"measurement": "GI50", "setting": "OVCAR-5 ovarian", "result": 4.21, "unit": "µM"}, {"measurement": "TGI", "setting": "OVCAR-5 ovarian", "result": 31, "unit": "µM"}, {"measurement": "GI50", "setting": "TK-10 renal", "result": 3.43, "unit": "µM"}, {"measurement": "TGI", "setting": "TK-10 renal", "result": 9.9, "unit": "µM"}, {"measurement": "GI50", "setting": "T-47D breast", "result": 2.29, "unit": "µM"}, {"measurement": "TGI", "setting": "T-47D breast", "result": 7.14, "unit": "µM"}, {"measurement": "GI50", "setting": "MDA-MB-435", "result": 2.89, "unit": "µM"}, {"measurement": "TGI", "setting": "MDA-MB-435", "result": 8.95, "unit": "µM"}, {"measurement": "GI50", "setting": "KM12 colon", "result": 3.75, "unit": "µM"}, {"measurement": "TGI", "setting": "KM12 colon", "result": 23.5, "unit": "µM"}, {"measurement": "GI50", "setting": "SK-MEL-28 melanoma", "result": 3.69, "unit": "µM"}, {"measurement": "TGI", "setting": "SK-MEL-28 melanoma", "result": 14, "unit": "µM"}, {"measurement": "GI50", "setting": "PC-3 prostate", "result": 2.5, "unit": "µM"}, {"measurement": "GI50", "setting": "OVCAR-3 ovarian", "result": 3.15, "unit": "µM"}, {"measurement": "TGI", "setting": "OVCAR-3 ovarian", "result": 11.5, "unit": "µM"}, {"measurement": "GI50", "setting": "NCI-H226 lung", "result": 2.78, "unit": "µM"}, {"measurement": "TGI", "setting": "NCI-H226 lung", "result": 8.31, "unit": "µM"}, {"measurement": "GI50", "setting": "SK-MEL-2 melanoma", "result": 2.21, "unit": "µM"}, {"measurement": "TGI", "setting": "SK-MEL-2 melanoma", "result": 5.75, "unit": "µM"}, {"measurement": "GI50", "setting": "A498 renal", "result": 1.96, "unit": "µM"}, {"measurement": "TGI", "setting": "A498 renal", "result": 4.85, "unit": "µM"}, {"measurement": "GI50", "setting": "LOX IMVI melanoma", "result": 1.68, "unit": "µM"}, {"measurement": "TGI", "setting": "LOX IMVI melanoma", "result": 3.33, "unit": "µM"}, {"measurement": "GI50", "setting": "CCRF-CEM leukemia", "result": 3.53, "unit": "µM"}, {"measurement": "TGI", "setting": "CCRF-CEM leukemia", "result": "> 100", "unit": "µM"}, {"measurement": "GI50", "setting": "K-562 leukemia", "result": 2.64, "unit": "µM"}, {"measurement": "TGI", "setting": "K-562 leukemia", "result": "> 100", "unit": "µM"}, {"measurement": "GI50", "setting": "OVCAR-8 ovarian", "result": 2.85, "unit": "µM"}, {"measurement": "TGI", "setting": "OVCAR-8 ovarian", "result": 9.3, "unit": "µM"}, {"measurement": "GI50", "setting": "SNB-75 CNS", "result": 3.42, "unit": "µM"}, {"measurement": "TGI", "setting": "SNB-75 CNS", "result": 18.9, "unit": "µM"}, {"measurement": "GI50", "setting": "MALME-3M melanoma", "result": 2.06, "unit": "µM"}, {"measurement": "TGI", "setting": "MALME-3M melanoma", "result": 5.23, "unit": "µM"}, {"measurement": "GI50", "setting": "SK-MEL-5 melanoma", "result": 2.88, "unit": "µM"}, {"measurement": "TGI", "setting": "SK-MEL-5 melanoma", "result": 8.81, "unit": "µM"}, {"measurement": "GI50", "setting": "IGROV1 ovarian", "result": 5.33, "unit": "µM"}, {"measurement": "TGI", "setting": "IGROV1 ovarian", "result": 25, "unit": "µM"}, {"measurement": "GI50", "setting": "RXF 393 renal", "result": 2.31, "unit": "µM"}, {"measurement": "TGI", "setting": "RXF 393 renal", "result": 6.48, "unit": "µM"}, {"measurement": "GI50", "setting": "UO-31 renal", "result": 2.84, "unit": "µM"}, {"measurement": "TGI", "setting": "UO-31 renal", "result": 12.6, "unit": "µM"}, {"measurement": "GI50", "setting": "HT29 colon", "result": 2.33, "unit": "µM"}, {"measurement": "TGI", "setting": "HT29 colon", "result": 5.85, "unit": "µM"}, {"measurement": "GI50", "setting": "SF-268 CNS", "result": 5.82, "unit": "µM"}, {"measurement": "TGI", "setting": "SF-268 CNS", "result": 48.6, "unit": "µM"}, {"measurement": "GI50", "setting": "SK-OV-3 ovarian", "result": 2.13, "unit": "µM"}, {"measurement": "TGI", "setting": "SK-OV-3 ovarian", "result": 6.06, "unit": "µM"}, {"measurement": "GI50", "setting": "NCI-H460 lung", "result": 3.12, "unit": "µM"}, {"measurement": "TGI", "setting": "NCI-H460 lung", "result": 10.5, "unit": "µM"}]}]}
